From patent US6737383B1, “Herbicidal oxadiazolidines” (priority 1999, dated 2004)

What was measured:
duck salad = test: Test B flood test duck salad; format: in vivo, Heteranthera limosa
Outline: (§1)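 Plants were grown to the 2-leaf stage before treatment with test chemical, then held in a greenhouse for twelve to sixteen days. Injury was visually rated against untreated controls on a 0–10 scale, where 0 is no effect and 10 is complete control.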

bamyardgrass = test: Test B flood test barnyardgrass; format: in vivo, Echinochloa crus-galli
Outline: as §1

smallflower flatsedge = test: Test B flood test smallflower flatsedge; format: in vivo, Cyperus difformis
Outline: as §1

rice = test: Test B flood test rice; format: in vivo, Oryza sativa
Experimental: At the same time, these crop and weed species were also treated with postemergence applications of test chemicals formulated in the same manner. Plants ranged in height from 2 to 18 cm (1- to 4-leaf stage) for postemergence treatments. Plant species in the flood test consisted of rice (Oryza sativa), smallflower flatsedge (Cyperus difformis), duck salad (Heteranthera limosa) and bamyardgrass (Echinochloa crus-galli) grown to the 2-leaf stage for testing. Treated plants and controls were maintained in a greenhouse for twelve to sixteen days, after which all species were compared to controls and visually evaluated. Plant response ratings, summarized in Table B, are based on a scale of 0 to 10 where 0 is no effect and 10 is complete control. A dash (−) response means no test result.

[1] = Pre-emergence, Rate 62 g/ha, scale 0 to 10, 0 is no effect, 10 is complete control
[2] = Rate 125 g/ha, Pre-emergence section (flood test species), scale 0 to 10, 0 no effect, 10 complete control
[3] = Rate 500 g/ha, Pre-emergence section of Table B, 0 to 10 scale (0 no effect, 10 complete control)

SMILES: CC(C)N(C(=O)n1oc(=O)n(C2CC=CCC2)c1=O)c1ccc(F)cc1 (stereo not drawn) [Compound 793]
- Ducksalad plant response rating (duck salad; [1]): 6
- Ducksalad plant response rating (duck salad; [2]): 7
- Ducksalad plant response rating (duck salad; [3]): 8
- Barnyardgrass plant response rating (bamyardgrass; [1]): 0
- Barnyardgrass plant response rating (bamyardgrass; [2]): 0
- Barnyardgrass plant response rating (bamyardgrass; [3]): 0
- S. Flatsedge plant response rating (smallflower flatsedge; [1]): 6
- S. Flatsedge plant response rating (smallflower flatsedge; [2]): 7
- S. Flatsedge plant response rating (smallflower flatsedge; [3]): 8
- Rice plant response rating (rice; [1]): 0
- Rice plant response rating (rice; [2]): 0
- Rice plant response rating (rice; [3]): 0
